What follows are compounds tested against Human immunodeficiency virus type 1 reverse transcriptase (Human immunodeficiency virus 1, UniProt Q72547) (assay: Inhibition of HIV1 reverse transcriptase in […]).
Format: cell-based

| IC50 | Structure (SMILES) |
| --- | --- |
| 3980 nM | CCC(=O)Nc1c(Cc2cc(C)cc(C)c2)c(CC)c(C)[nH]c1=O |
| 13 nM | CCOCCN(C)c1c(Cc2cccc(C)c2)c(CC)c(C)[nH]c1=O |
| 10 nM | CCc1c(C)[nH]c(=O)c(NC)c1Cc1cc(C)cc(C)c1 |
| 4 nM | CCc1c(C)[nH]c(=O)c(N(C)CC#N)c1Cc1cccc(C)c1 |
| 12.6 nM | CCc1c(C)[nH]c(=O)c(-n2cccc2)c1Cc1cc(C)cc(C)c1 |
| 4 nM | CCc1c(C)[nH]c(=O)c(N(C)CCCCCO)c1Cc1cc(C)cc(C)c1 |
| 16 nM | CCc1c(C)[nH]c(=O)c(N(C)CCC#N)c1Cc1cccc(C)c1 |
| 1 nM | CCc1c(C)[nH]c(=O)c(N(C)CCOC)c1Cc1cccc(C)c1 |
| 398 nM | CCc1c(C)[nH]c(=O)c(NC(C)=O)c1Cc1cc(C)cc(C)c1 |
| 1 nM | CCc1c(C)[nH]c(=O)c(N(C)CCOC)c1Cc1cccc(/C=C/C#N)c1 |
| 8 nM | CCc1c(C)[nH]c(=O)c(N(C)CC)c1Cc1cc(C)cc(C)c1 |
| 1 nM | CCc1c(C)[nH]c(=O)c(N(C)CC)c1Cc1cccc(/C=C/C#N)c1 |
| 631 nM | CCc1c(C)[nH]c(=O)c(N2CCCCC2)c1Cc1cc(C)cc(C)c1 |

More lines, now with the values behind:

| Structure (SMILES) | IC50 |
| --- | --- |
| CCc1c(C)[nH]c(=O)c(NCc2ccccc2)c1Cc1cc(C)cc(C)c1 | 251 nM |
| CCCCNc1c(Cc2cc(C)cc(C)c2)c(CC)c(C)[nH]c1=O | 126 nM |
| CCc1c(C)[nH]c(=O)c(N(CC)CC)c1Cc1cc(C)cc(C)c1 | 16 nM |
| CCc1c(C)[nH]c(=O)c(N(C)CCOC)c1Cc1cc(C)cc(C)c1 | 2 nM |
| CCCNc1c(Cc2cc(C)cc(C)c2)c(CC)c(C)[nH]c1=O | 20 nM |
| CCc1c(C)[nH]c(=O)c(NC=O)c1Cc1cc(C)cc(C)c1 | 79 nM |
| CCc1c(C)[nH]c(=O)c(N(C)CCCO)c1Cc1cccc(C)c1 | 3 nM |
| CCc1c(C)[nH]c(=O)c(N2CCOCC2)c1Cc1cc(C)cc(C)c1 | 158 nM |
| CCc1c(C)[nH]c(=O)c(N(Cc2ccccc2)Cc2ccccc2)c1Cc1cc(C)cc(C)c1 | 100000 nM |
| CCc1c(C)[nH]c(=O)c(N(C)CCCC#N)c1Cc1cccc(C)c1 | 5 nM |
| CCCC(=O)Nc1c(Cc2cc(C)cc(C)c2)c(CC)c(C)[nH]c1=O | 100000 nM |
| CCCCN(CCCC)c1c(Cc2cc(C)cc(C)c2)c(CC)c(C)[nH]c1=O | 50100 nM |
| CCc1c(C)[nH]c(=O)c(N(C)CCCSC)c1Cc1cc(C)cc(C)c1 | 25 nM |
| CCc1c(C)[nH]c(=O)c(N(C)C(C)COC)c1Cc1cc(C)cc(C)c1 (centres undefined) | 6 nM |
| CCNc1c(Cc2cc(C)cc(C)c2)c(CC)c(C)[nH]c1=O | 16 nM |
| CCNC(=S)Nc1c(Cc2cccc(C)c2)c(CC)c(C)[nH]c1=O | 25100 nM |
| CCc1c(C)[nH]c(=O)c(NC(=S)Nc2ccccc2)c1Cc1cccc(C)c1 | 3160 nM |
| CCc1c(C)[nH]c(=O)c(NC(N)=S)c1Cc1cccc(C)c1 | 316 nM |
| CCc1c(C)[nH]c(=O)c(N(C)CCO)c1Cc1cccc(C)c1 | 5 nM |
| CCc1c(C)[nH]c(=O)c(N(C)CCCCCO)c1Cc1cccc(C)c1 | 10 nM |
| CCCN(C)c1c(Cc2cc(C)cc(C)c2)c(CC)c(C)[nH]c1=O | 16 nM |

— ChEMBL document CHEMBL1150258, “Predicting binding modes from free energy calculations” (J Med Chem, 2008)
